US6310065A, “Pyridazinone hydrochloride compound and method for producing the same” (Nissan Chemical Industries, Ltd., priority 1998, dated 2001)
Counter-ions that a name gives are not always drawn.

How the values were obtained:
[1] = Physical properties and stability of the hydrochlorides, stated in words
[2] = Comparison of biological dynamics in a dog, 10 mg/kg oral administration by capsules; assay type: in vivo; settings: for AUC (0-.infin.) / Cmax: 10 mg/kg oral administration by capsules, 10 mg/kg
Description: Further, the compound (1) and its 3/2-hydrochloride (2) were compared with regard to biological dynamics in a dog. […] Result: (10 mg/kg oral administration by capsules)

[3] = Hygroscopic test under conditions of 25° C. and 75% RH (Test Example 1); assay type: physicochemical
Description: Hygroscopic test of 2-hydrochloride and 3/2-hydrochloride under conditions of 25° C. and 75% RH
A humidity conditioning solution was prepared by using a saturated aqueous solution of sodium chloride, and the solution thus prepared was placed in a humidistat, and temperature-moisture conditions at 25° C. were adjusted. 0.4 g of 2-hydrochloride and 0.2 g of 3/2-hydrochloride were weighed respectively in a weighing bottle to prepare test samples, and the test samples were subjected to hygroscopic test under the above adjusted temperature-moisture conditions to measure a water content and a decomposed material content as a lapse of time and to compare hygroscopicity and stability of the test samples.

[4] = Pharmaceutical effect, stated in words
[5] = 10 mg/kg oral by capsules, ratio to compound (1)

Row | SMILES | electrostatic charging of the crystal [1] | hygroscopicity [1] | solubility [1] | AUC (0-.infin.) [2] | Cmax [2] | Water content ([3]; Time 0) | Increased decomposed material content ([3]; Time 1) | Water content ([3]; Time 1) | Increased decomposed material content ([3]; Time 24) | Water content ([3]; Time 24) | Increased decomposed material content ([3]; Time 48) | Water content ([3]; Time 48) | area under the curve (AUC) of time-concentration in blood (0-.infin.), times more preferable as compared with the compound (1) [2, 5] | maximum concentration in blood (Cmax), times higher as compared with the compound (1) [2, 5] | pharmaceutical effect [4] | degraded ([3]; solid, 75% rh, Time 1, read-out: Increased decomposed material content) | decomposition in a methanol solvent ([1]; methanol solvent)
1 | COc1ccc(CNc2cn[nH]c(=O)c2Cl)cc1OCC(=O)N1CCN(Cc2ccccc2)CC1 [1-hydrochloride] | easily electrostatically charged | high hygroscopicity | poor in solubility |  |  |  |  |  |  |  |  |  |  |  |  |  | 
2 | COc1ccc(CNc2cn[nH]c(=O)c2Cl)cc1OCC(=O)N1CCN(Cc2ccccc2)CC1 [Compound 1, 4-chloro-5-[3-(4-benzylpiperazin-1-yl)carbonylmethoxy-4-methoxybenzylamino]-3(2H)-pyridazinone] |  |  |  | 844.3 ng·h/mL | 249.7 ng/mL |  |  |  |  |  |  |  |  |  |  |  | 
3 | COc1ccc(CNc2cn[nH]c(=O)c2Cl)cc1OCC(=O)N1CCN(Cc2ccccc2)CC1 [Compound 2, 3/2-Hydrochloride of 4-chloro-5-[3-(4-benzylpiperazin-1-yl)carbonylmethoxy-4-methoxybenzylamino]-3 (2H) -pyridazinone] |  |  |  | 1998.3 ng·h/mL | 1349.0 ng/mL | 2.03% | 0.06% | 2.42% | 0.17% | 2.34% | 0.18% | 2.57% | 2.3 times | 5.4 times | equivalent to that of 2-hydrochloride |  | 
4 | COc1ccc(CNc2cn[nH]c(=O)c2Cl)cc1OCC(=O)N1CCN(Cc2ccccc2)CC1 [2-hydrochloride, 2-Hydrochloride of 4-chloro-5-[3-(4-benzylpiperazin-1-yl)carbonylmethoxy-4-methoxybenzylamino]-3 (2H) -pyridazinone] |  | highly hygroscopic |  |  |  | 0.93% |  | 4.17% | 1.75% | 5.60% | 11.78% | 9.45% |  |  | excellent pharmaceutical effect | 0.08% | rapidly decomposed in a methanol solvent
